Laboratory results taken from patent US11180462B2, “Microbiocidal oxadiazole derivatives” (SYNGENTA PARTICIPATIONS AG, priority 2015, dated 2021).

How the values were obtained:
[1] = system: Glomerella lagenarium (Colletotrichum lagenarium); assay: Fungicidal activity against Glomerella lagenarium (Colletotrichum lagenarium) liquid culture / cucumber / preventative (anthracnose); assay type: cell-based; conditions: Colletotrichum orbiculare; 20 ppm in the applied formulation; liquid culture (PDB), growth inhibition measured photometrically after 3 to 4 days; compared to untreated control; read-out: disease control
Summary of the method: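 Photometric read-out of fungal growth after 2–7 days, expressed as percent antifungal activity versus untreated check. Cryo-stored conidia in PDB; compound at 20 ppm; dark, 24 °C, 96% RH.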

[2] = system: Puccinia recondita f. Sp. Tritici; assay: Fungicidal activity against Puccinia recondita f. sp. tritici / wheat / leaf disc curative (brown rust); assay type: in vivo; conditions: foliar, 24 h, 200 ppm in the applied formulation, wheat leaf segments, curative (applied 1 day after inoculation), compared to untreated control leaf disks, read-out: disease control
Experimental: Leaf disks or leaf segments of various plant species are cut from plants grown in a greenhouse. The cut leaf disks or segments are placed in multiwell plates (24-well format) onto water agar. The leaf disks are sprayed with a test solution before (preventative) or after (curative) inoculation. Compounds to be tested are prepared as DMSO solutions (max. 10 mg/ml) which are diluted to the appropriate concentration with 0.025% Tween20 just before spraying. The inoculated leaf disks or segments are incubated under defined conditions (temperature, relative humidity, light, etc.) according to the respective test system. A single evaluation of disease level is carried out 3 to 14 days after inoculation, depending on the pathosystem. Percent disease control relative to the untreated check leaf disks or segments is then calculated.
Fungicidal Activity Against Puccinia recondita f. Sp. Tritici/Wheat/Leaf Disc Curative (Brown Rust)
Wheat leaf segments cv. Kanzler are placed on agar in multiwell plates (24-well format). The leaf segments are then inoculated with a spore suspension of the fungus. Plates were stored in darkness at 19° C. and 75% relative humidity. The formulated test compound diluted in water was applied 1 day after inoculation. The leaf segments were incubated at 19° C. and 75% relative humidity under a light regime of 12 hours light/12 hours darkness in a climate cabinet and the activity of a compound was assessed as percent disease control compared to untreated when an appropriate level of disease damage appears in untreated check leaf segments (6 to 8 days after application).
The following compounds at 200 ppm in the applied formulation give at least 80% disease control in this test when compared to untreated control leaf disks under the same conditions, which show extensive disease development.

[3] = system: Puccinia recondita f. Sp. Tritici; assay: Fungicidal activity against Puccinia recondita f. sp. tritici / wheat / leaf disc preventative (brown rust); assay type: in vivo; conditions: foliar, 200 ppm in the applied formulation, wheat leaf segments, preventative, compared to untreated control leaf disks, read-out: disease control
Summary of the method: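 Compound application precedes infection: segments of wheat cv. Kanzler, sprayed at 200 ppm, are inoculated with a spore suspension after 1 day. Incubation is at 19° C. with 75% relative humidity and 12 h light/12 h darkness, and control versus untreated leaves is rated 7 to 9 days post-application.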

Row | Structure (SMILES) | inhibition of growth at 20 ppm [1] [%] | pest or weed control at 200 ppm [2] [%] | pest or weed control at 200 ppm [3] [%]
1 | CCCC(C)(C)C(=O)N(Cc1ccc(-c2noc(C(F)(F)F)n2)cc1)OC [Compound 1.10, N-methoxy-2,2-dimethyl-N-[[4-[5-(trifluoromethyl)-1,2,4-oxadiazol-3-yl]phenyl]methyl]-pentanamide] | ≥ 80 | ≥ 80 | ≥ 80
2 | CON(Cc1ccc(-c2noc(C(F)(F)F)n2)cc1)C(=O)C1CC1c1ccccc1 (centres unmarked) [Compound 1.25, N-methoxy-2-phenyl-N-[[4-[5-(trifluoromethyl)-1,2,4-oxadiazol-3-yl]phenyl]methyl]-cyclopropane-carboxamide] | ≥ 80 | ≥ 80 | ≥ 80
3 | CON(Cc1ccc(-c2noc(C(F)(F)F)n2)cc1)C(=O)Cc1ccc(C#N)cc1 [Compound 1.52, 2-(4-cyanophenyl)-N-methoxy-N-[[4-[5-(trifluoromethyl)-1,2,4-oxadiazol-3-yl]phenyl]methyl]-acetamide] |  | ≥ 80 | ≥ 80
4 | O=C(Cc1ccc(Cl)cc1)N(Cc1ccc(-c2noc(C(F)(F)F)n2)cc1)C1CC1 [Compound 1.127, 2-(4-chlorophenyl)-N-cyclopropyl-N-[[4-[5-(trifluoromethyl)-1,2,4-oxadiazol-3-yl]phenyl]methyl]-acetamide] | ≥ 80 | ≥ 80 | ≥ 80
5 | C#CCOc1ccc(C(=O)N(Cc2ccc(-c3noc(C(F)(F)F)n3)cc2)C2CC2)cc1F [Compound 1.129, N-cyclopropyl-3-fluoro-4-prop-2-ynoxy-N-[[4-[5-(trifluoromethyl)-1,2,4-oxadiazol-3-yl]phenyl]methyl]-benzamide] | ≥ 80 | ≥ 80 | ≥ 80
6 | O=C(c1cccc2nnsc12)N(Cc1ccc(-c2noc(C(F)(F)F)n2)cc1)C1CC1 [Compound 1.139, N-cyclopropyl-N-[[4-[5-(trifluoromethyl)-1,2,4-oxadiazol-3-yl]phenyl]methyl]-1,2,3-benzothiadiazole-7-carboxamide] | ≥ 80 | ≥ 80 | ≥ 80
7 | C#CCN(Cc1ccc(-c2noc(C(F)(F)F)n2)cc1)C(=O)C1(C(F)(F)F)CCC1 [Compound 1.161, N-prop-2-ynyl-1-(trifluoromethyl)-N-[[4-[5-(trifluoromethyl)-1,2,4-oxadiazol-3-yl]phenyl]methyl]-cyclobutane-carboxamide] | ≥ 80 | ≥ 80 | ≥ 80
8 | C#CCN(Cc1ccc(-c2noc(C(F)(F)F)n2)cc1)C(=O)CCCCC [Compound 1.162, N-prop-2-ynyl-N-[[4-[5-(trifluoromethyl)-1,2,4-oxadiazol-3-yl]phenyl]methyl]-hexanamide] | ≥ 80 | ≥ 80 | ≥ 80
9 | C#CCN(Cc1ccc(-c2noc(C(F)(F)F)n2)cc1)C(=O)C1CCSCC1 [Compound 1.188, N-prop-2-ynyl-N-[[4-[5-(trifluoromethyl)-1,2,4-oxadiazol-3-yl]phenyl]methyl]-tetrahydrothiopyran-4-carboxamide] |  | ≥ 80 | ≥ 80
10 | CC(C)(C)C(=O)N(Cc1ccc(-c2noc(C(F)(F)F)n2)cc1)CC1CC1 [Compound 1.225, N-(cyclopropylmethyl)-2,2-dimethyl-N-[[4-[5-(trifluoromethyl)-1,2,4-oxadiazol-3-yl]phenyl]methyl]-propanamide] | ≥ 80 | ≥ 80 | ≥ 80
11 | CCC(COC)C(=O)N(CCOC)Cc1ccc(-c2noc(C(F)(F)F)n2)cc1 (centres unmarked) [Compound 1.353, N-(2-methoxyethyl)-2-(methoxymethyl)-N-[[4-[5-(trifluoromethyl)-1,2,4-oxadiazol-3-yl]phenyl]methyl]-butanamide] |  | ≥ 80 | ≥ 80
12 | COCCN(Cc1ccc(-c2noc(C(F)(F)F)n2)cc1)C(=O)C1CCCN1C(C)=O (centres unmarked) [Compound 1.357, 1-acetyl-N-(2-methoxyethyl)-N-[[4-[5-(trifluoromethyl)-1,2,4-oxadiazol-3-yl]phenyl]methyl]-pyrrolidine-2-carboxamide] |  | ≥ 80 | ≥ 80
13 | CCC(C)N(Cc1ccc(-c2noc(C(F)(F)F)n2)cc1)C(=O)C1=CCCC1 (centres unmarked) [Compound 1.377, N-sec-butyl-N-[[4-[5-(trifluoromethyl)-1,2,4-oxadiazol-3-yl]phenyl]methyl]-cyclopentene-1-carboxamide] | ≥ 80 | ≥ 80 | 
14 | O=C(C1CC1F)N(Cc1ccc(-c2noc(C(F)(F)F)n2)cc1)CC1CCCO1 (centres unmarked) [Compound 1.445, 2-fluoro-N-(tetrahydrofuran-2-ylmethyl)-N-[[4-[5-(trifluoromethyl)-1,2,4-oxadiazol-3-yl]phenyl]methyl]-cyclopropane-carboxamide] | ≥ 80 | ≥ 80 | 
15 | O=C(C1CCCC1)N(Cc1ccc(-c2noc(C(F)(F)F)n2)cc1)Cc1ccco1 [Compound 1.455, N-(2-furylmethyl)-N-[[4-[5-(trifluoromethyl)-1,2,4-oxadiazol-3-yl]phenyl]methyl]-cyclopentane-carboxamide] | ≥ 80 | ≥ 80 | 
16 | CON(Cc1ccc(-c2noc(C(F)(F)F)n2)cc1)C(=O)CN [Compound 1.788, [2-[methoxy-[[4-[5-(trifluoromethyl)-1,2,4-oxadiazol-3-yl]phenyl]methyl]-amino]-2-oxo-ethyl]ammonium; chloride] |  | ≥ 80 | ≥ 80
17 | CON(Cc1ccc(-c2noc(C(F)(F)F)n2)nc1)C(=O)C1CCCO1 (centres unmarked) [Compound 1.789, N-methoxy-N-[[6-[5-(trifluoromethyl)-1,2,4-oxadiazol-3-yl]-3-pyridyl]methyl]-tetrahydrofuran-2-carboxamide] |  | ≥ 80 | ≥ 80
18 | C=CCOC(=O)N(Cc1ccc(-c2noc(C(F)(F)F)n2)cc1)OC [Compound 2.11, allyl N-methoxy-N-[[4-[5-(trifluoromethyl)-1,2,4-oxadiazol-3-yl]phenyl]methyl]-carbamate] | ≥ 80 | ≥ 80 | 
19 | CON(Cc1ccc(-c2noc(C(F)(F)F)n2)cc1)C(=O)OCCF [Compound 2.15, 2-fluoroethyl N-methoxy-N-[[4-[5-(trifluoromethyl)-1,2,4-oxadiazol-3-yl]phenyl]methyl]-carbamate] | ≥ 80 | ≥ 80 | 
20 | CON(Cc1ccc(-c2noc(C(F)(F)F)n2)cc1)C(=O)OCCCl [Compound 2.17, 2-chloroethyl N-methoxy-N-[[4-[5-(trifluoromethyl)-1,2,4-oxadiazol-3-yl]phenyl]methyl]-carbamate] | ≥ 80 | ≥ 80 | 
21 | C#CCOC(=O)N(Cc1ccc(-c2noc(C(F)(F)F)n2)cc1)OC [Compound 2.20, prop-2-ynyl N-methoxy-N-[[4-[5-(trifluoromethyl)-1,2,4-oxadiazol-3-yl]phenyl]methyl]-carbamate] | ≥ 80 | ≥ 80 | 
22 | CNC(=O)CN(C)C(=O)N(C)Cc1ccc(-c2noc(C(F)(F)F)n2)cc1 [Compound 3.68, N-methyl-2-[methyl-[methyl-[[4-[5-(trifluoromethyl)-1,2,4-oxadiazol-3-yl]phenyl]methyl]-carbamoyl]-amino]acetamide] |  | ≥ 80 | ≥ 80
23 | CCN(Cc1ccc(-c2noc(C(F)(F)F)n2)cc1)C(=O)N(C)CC(=O)NC [Compound 3.86, 2-[[ethyl-[[4-[5-(trifluoromethyl)-1,2,4-oxadiazol-3-yl]phenyl]methyl]-carbamoyl]-methyl-amino]-N-methyl-acetamide] |  | ≥ 80 | ≥ 80
24 | CCN(Cc1ccc(-c2noc(C(F)(F)F)n2)cc1)C(=O)N(CC)CC1CC1 [Compound 3.100, 1-(cyclopropylmethyl)-1,3-diethyl-3-[[4-[5-(trifluoromethyl)-1,2,4-oxadiazol-3-yl]phenyl]methyl]urea] | ≥ 80 | ≥ 80 | 
